From patent publication US20070004660A1, “Synergistic Modulation of Flt3 Kinase Using Alkylquinolines and Alkylquinazolines” (priority 2005, published 2007)

Columns and labels:
[1] = test system: MV4-11 cells; assay: Inhibition of MV4-11 cell proliferation (CellTiterGlo, 72 h); type: cell-based; details: Homo sapiens; 72 h growth inhibition; uncertainty ±20%
[2] = biological target: T1, isolated kinase domain of the human FLT3 receptor (a.a. 571-993) (Homo sapiens, UniProt P36888); assay: FLT3 fluorescence polarization kinase assay; type: biochemical; details: 150 uM ATP; uncertainty ±10%
T1 construct: human FLT3 receptor (a.a. 571-993)
T1 sequence (P36888 571-993): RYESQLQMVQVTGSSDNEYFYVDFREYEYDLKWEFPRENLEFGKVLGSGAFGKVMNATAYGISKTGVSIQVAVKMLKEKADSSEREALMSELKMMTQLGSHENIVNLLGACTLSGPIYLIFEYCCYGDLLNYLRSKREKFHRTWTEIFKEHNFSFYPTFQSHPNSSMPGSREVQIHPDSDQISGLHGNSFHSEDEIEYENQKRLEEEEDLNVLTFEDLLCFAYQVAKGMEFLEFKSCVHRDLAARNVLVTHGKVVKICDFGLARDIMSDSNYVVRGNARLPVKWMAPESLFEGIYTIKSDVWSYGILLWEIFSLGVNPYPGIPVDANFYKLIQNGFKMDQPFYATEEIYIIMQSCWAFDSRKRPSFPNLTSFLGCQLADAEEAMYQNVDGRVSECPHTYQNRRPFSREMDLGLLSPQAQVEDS

Row | Structure (SMILES) | IC50 [1] | IC50 [2]
1 | O=C(Nc1ccc(N2CCCC2)cc1)N1CCC(c2ncnc3cc(OCCN4CCOC4=O)ccc23)CC1 [Example 147, 4-{7-[2-(2-Oxo-oxazolidin-3-yl)-ethoxy]-quinazolin-4-yl}-piperidine-1-carboxylic acid (4-pyrrolidin-1-yl-phenyl)-amide] | 51 nM | 27 nM
2 | O=C(Nc1ccc(N2CCOCC2)cc1)N1CCC(c2ncnc3cc(OCCN4CCOC4=O)ccc23)CC1 [Example 148, 4-{7-[2-(2-Oxo-oxazolidin-3-yl)-ethoxy]-quinazolin-4-yl}-piperidine-1-carboxylic acid (4-morpholin-4-yl-phenyl)-amide] | 66 nM | 30 nM
3 | CN(C)[C@@H]1CCN(c2ccc3c(C4CCN(C(=O)Nc5ccc(N6CCCC6)cc5)CC4)ncnc3c2)C1 [Example 149, (R)-4-[7-(3-Dimethylamino-pyrrolidin-1-yl)-quinazolin-4-yl]-piperidine-1-carboxylic acid (4-pyrrolidin-1-yl-phenyl)-amide] | 46 nM | 46 nM
4 | CN(C)[C@@H]1CCN(c2ccc3c(C4CCN(C(=O)Nc5ccc(N6CCOCC6)cc5)CC4)ncnc3c2)C1 [Example 150, (R)-4-[7-(3-Dimethylamino-pyrrolidin-1-yl)-quinazolin-4-yl]-piperidine-1-carboxylic acid (4-morpholin-4-yl-phenyl)-amide] | 269 nM | 14 nM
5 | CN1CCC[C@H]1COc1ccc2c(C3CCN(C(=O)Nc4ccc(N5CCCC5)cc4)CC3)ncnc2c1 [Example 151, (S)-4-[7-(1-Methyl-pyrrolidin-2-ylmethoxy)-quinazolin-4-yl]-piperidine-1-carboxylic acid (4-pyrrolidin-1-yl-phenyl)-amide] | 193 nM | 62 nM
6 | O=C(Nc1ccc(N2CCCC2)cc1)N1CCC(c2ncnc3cc(OCCN4CCC[C@H]4CO)ccc23)CC1 [Example 152, (S)-4-{7-[2-(2-Hydroxymethyl-pyrrolidin-1-yl)-ethoxy]-quinazolin-4-yl}-piperidine-1-carboxylic acid (4-pyrrolidin-1-yl-phenyl)-amide] | 21 nM | 18 nM
7 | O=C(Nc1ccc(N2CCOCC2)cc1)N1CCC(c2ncnc3cc(OCCN4CCC[C@H]4CO)ccc23)CC1 [Example 153, (S)-4-{7-[2-(2-Hydroxymethyl-pyrrolidin-1-yl)-ethoxy]-quinazolin-4-yl}-piperidine-1-carboxylic acid (4-morpholin-4-yl-phenyl)-amide] | 395 nM | 22 nM
8 | CC(=O)N1CC[C@@H](Oc2ccc3c(C4CCN(C(=O)Nc5ccc(N6CCCC6)cc5)CC4)ncnc3c2)C1 [Example 154, (R)-4-[7-(1-Acetyl-pyrrolidin-3-yloxy)-quinazolin-4-yl]-piperidine-1-carboxylic acid (4-pyrrolidin-1-yl-phenyl)-amide] | 63 nM | 15 nM
9 | CNC(=O)C1CCN(c2ccc3c(C4CCN(C(=O)Nc5ccc(N6CCCC6)cc5)CC4)ncnc3c2)CC1 [Example 155, 4-[7-(4-Carboxylic acid methylamide-piperidin-1-yl)-quinazolin-4-yl]-piperidine-1-carboxylic acid (4-pyrrolidin-1-yl-phenyl)-amide] | 13 nM | 8 nM
10 | CN1CCN(CCOc2ccc3c(C4CCN(C(=O)Nc5ccc(N6CCOCC6)cc5)CC4)ncnc3c2)CC1 [Example 156, 4-{7-[2-(4-Methyl-piperazin-1-yl)-ethoxy]-quinazolin-4-yl}-piperidine-1-carboxylic acid (4-morpholin-4-yl-phenyl)-amide] | 74 nM | 6 nM
11 | CN1CCN(CCOc2ccc3c(C4CCN(C(=O)Nc5ccc(N6CCCC6)cc5)CC4)ncnc3c2)CC1 [Example 157, 4-{7-[2-(4-Methyl-piperazin-1-yl)-ethoxy]-quinazolin-4-yl}-piperidine-1-carboxylic acid (4-pyrrolidin-1-yl-phenyl)-amide] | 9 nM | 0.5 nM
12 | CN1CCN(CCCOc2ccc3c(C4CCN(C(=O)Nc5ccc(N6CCCC6)cc5)CC4)ncnc3c2)CC1 [Example 158, 4-{7-[3-(4-Methyl-piperazin-1-yl)-propoxy]-quinazolin-4-yl}-piperidine-1-carboxylic acid (4-pyrrolidin-1-yl-phenyl)-amide] | 11 nM | 8 nM
13 | CN1CCN(c2ccc3c(C4CCN(C(=O)Nc5ccc(N6CCCC6)cc5)CC4)ncnc3c2)CC1 [Example 159, 4-[7-(4-Methyl-piperazin-1-yl)-quinazolin-4-yl]-piperidine-1-carboxylic acid (4-pyrrolidin-1-yl-phenyl)-amide] | 6 nM | 7 nM
14 | CN1CCN(c2ccc3c(C4CCN(C(=O)Nc5ccc(N6CCCC6)nc5)CC4)ncnc3c2)CC1 [Example 160, 4-[7-(4-Methyl-piperazin-1-yl)-quinazolin-4-yl]-piperidine-1-carboxylic acid (6-pyrrolidin-1-yl-pyridin-3-yl)-amide] | 67 nM | 14 nM
15 | O=C(Nc1ccc(N2CCCC2)cc1)N1CCC(c2ncnc3cc(OCCCN4CCC[C@H]4CO)ccc23)CC1 [Example 161, (S)-4-{7-[3-(2-Hydroxymethyl-pyrrolidin-1-yl)-propoxy]-quinazolin-4-yl}-piperidine-1-carboxylic acid (4-pyrrolidin-1-yl-phenyl)-amide] | 13 nM | 1 nM
16 | CC(=O)N1CCC[C@H]1COc1ccc2c(C3CCN(C(=O)Nc4ccc(N5CCCC5)cc4)CC3)ncnc2c1 [Example 162, (S)-4-[7-(1-Acetyl-pyrrolidin-2-ylmethoxy)-quinazolin-4-yl]-piperidine-1-carboxylic acid (4-pyrrolidin-1-yl-phenyl)-amide] | 46 nM | 32 nM
17 | CC(=O)N1CCC(COc2ccc3c(C4CCN(C(=O)Nc5ccc(N6CCCC6)cc5)CC4)ncnc3c2)CC1 [Example 163, 4-[7-(1-Acetyl-piperidin-4-ylmethoxy)-quinazolin-4-yl]-piperidine-1-carboxylic acid (4-pyrrolidin-1-yl-phenyl)-amide] | 20 nM | 11 nM
18 | CS(=O)(=O)N1CCN(CCCOc2ccc3c(C4CCN(C(=O)Nc5ccc(N6CCCC6)cc5)CC4)ncnc3c2)CC1 [Example 164, 4-{7-[3-(4-Methanesulfonyl-piperazin-1-yl)-propoxy]-quinazolin-4-yl}-piperidine-1-carboxylic acid (4-pyrrolidin-1-yl-phenyl)-amide] | 36 nM | 25 nM
19 | CN(C)C(=O)N1CCN(CCCOc2ccc3c(C4CCN(C(=O)Nc5ccc(N6CCCC6)cc5)CC4)ncnc3c2)CC1 [Example 165, 4-(3-{4-[1-(4-Pyrrolidin-1-yl-phenylcarbamoyl)-piperidin-4-yl]-quinazolin-7-yloxy}-propyl)-piperazine-1-carboxylic acid dimethylamide] | 18 nM | 15 nM
20 | CC(=O)N1CCN(c2ccc3c(C4CCN(C(=O)Nc5ccc(N6CCCC6)cc5)CC4)ncnc3c2)CC1 [Example 166, 4-[7-(4-Acetyl-piperazin-1-yl)-quinazolin-4-yl]-piperidine-1-carboxylic acid (4-pyrrolidin-1-yl-phenyl)-amide] | 17 nM | 9 nM
21 | CS(=O)(=O)N1CCN(c2ccc3c(C4CCN(C(=O)Nc5ccc(N6CCCC6)cc5)CC4)ncnc3c2)CC1 [Example 167, 4-[7-(4-Methanesulfonyl-piperazin-1-yl)-quinazolin-4-yl]-piperidine-1-carboxylic acid (4-pyrrolidin-1-yl-phenyl)-amide] | 21 nM | 44 nM
22 | O=C(Nc1ccc(N2CCCC2)cc1)N1CCC(c2ncnc3cc(OCCO)ccc23)CC1 [Example 169, 4-[7-(2-Hydroxy-ethoxy)-quinazolin-4-yl]-piperidine-1-carboxylic acid (4-pyrrolidin-1-yl-phenyl)-amide] | 32 nM | 32 nM
23 | CC(=O)N1CC(Oc2ccc3c(C4CCN(C(=O)Nc5ccc(N6CCCC6)cc5)CC4)ncnc3c2)C1 [Example 170, 4-[7-(1-Acetyl-azetidin-3-yloxy)-quinazolin-4-yl]-piperidine-1-carboxylic acid (4-pyrrolidin-1-yl-phenyl)-amide] | 97 nM | 290 nM
24 | CS(=O)(=O)N1CC(Oc2ccc3c(C4CCN(C(=O)Nc5ccc(N6CCCC6)cc5)CC4)ncnc3c2)C1 [Example 171, 4-[7-(1-Methanesulfonyl-azetidin-3-yloxy)-quinazolin-4-yl]-piperidine-1-carboxylic acid (4-pyrrolidin-1-yl-phenyl)-amide] | 185 nM | 130 nM
25 | O=C(COc1ccc2c(C3CCN(C(=O)Nc4ccc(N5CCCC5)cc4)CC3)ncnc2c1)N1CCOCC1 [Example 172, 4-[7-(2-Morpholin-4-yl-2-oxo-ethoxy)-quinazolin-4-yl]-piperidine-1-carboxylic acid (4-pyrrolidin-1-yl-phenyl)-amide] | 248 nM | 542 nM
26 | O=C(Nc1ccc(N2CCCC2)cc1)N1CCC(c2ncnc3cc(N4CCC4)ccc23)CC1 [Example 173, 4-(7-Azetidin-1-yl-quinazolin-4-yl)-piperidine-1-carboxylic acid (4-pyrrolidin-1-yl-phenyl)-amide] | 16 nM | 1 nM
27 | O=C(Nc1ccc(N2CCCC2)cc1)N1CCC(c2ncnc3cc(Oc4cccnc4)ccc23)CC1 [Example 174, 4-[7-(Pyridin-3-yloxy)-quinazolin-4-yl]-piperidine-1-carboxylic acid (4-pyrrolidin-1-yl-phenyl)-amide] | 214 nM | 42 nM
